Measurements from patent US9192618B2, “Method of treating constipation-predominant irritable bowel syndrome” (Cedars-Sinai Medical Center, priority 2002, dated 2015).

Key:
[1] = tested on: irritable bowel syndrome (IBS) subjects; experiment: Double-blind, randomized, placebo-controlled study of neomycin in IBS subjects (symptom questionnaire and lactulose breath test); assay type: in vivo, human; conditions: for patient-reported bowel normalization / reduction in composite score (CS): mean ± S.E.
Excerpt: In a double-blind, randomized, placebo-controlled study, we confirm that an abnormal lactulose breath test is more prevalent in IBS than normal controls, and that antibiotic treatment in IBS leads to an improvement in symptoms and that this is based on antibiotic-induced normalization of breath test. […] This is another important step in linking SIBO and IBS.
Study subjects were recruited by advertising in local newspapers, radio and IBS support groups throughout the greater Los Angeles area. To avoid referral bias, subjects were not recruited through the GI motility clinic or any gastroenterology practice based at Cedars-Sinai Medical Center. Subjects were included if they met Rome I criteria for IBS (7). […] Subjects were excluded if they had antibiotics within the previous three months, a previous lactulose breath test (LBT), or a history of diabetes, thyroid disease, intestinal surgery (except cholecystectomy or appendectomy), connective tissue disease, narcotic use or known gastrointestinal disease. Subjects with renal insufficiency, hearing impairment, probiotic use or allergy to aminoglycosides were also excluded. Approval from the institutional review board and written informed consent from the participating subjects were obtained.
Subjects presented to the GI Motility Laboratory having fasted from 7:00 p.m. the night before. They were instructed not to ingest legumes or a heavy meal for dinner the night prior to evaluation. Good oral hygiene was recommended and smoking was not permitted on the day of testing.
Prior to the LBT, subjects completed a symptom questionnaire asking them to grade nine IBS symptoms (abdominal pain, diarrhea, constipation, bloating, sense of incomplete evacuation, straining, urgency, mucus and gas) on a severity score of 0-5 as has been previously used and recommended (15-17). All questions were answered based on their recall of the preceding 7 days (17).
Subjects then underwent a LBT by ingesting 10 g of lactulose (Inalco Spa, Milano, Italy, packaged by Xactdose Inc., South Beloit, Ill.) followed by 1-2 ounces of water after an initial baseline breath sample. Breath samples were then collected at 15 minute intervals for 180 minutes. End expiratory breath samples were taken to ensure alveolar gas sampling. Samples were analyzed for hydrogen, methane and carbon dioxide using a Model SC, Quintron gas chromatograph (Quintron Instrument Company, Milwaukee, Wis.). Carbon dioxide measurements were used to correct for the quality of alveolar sampling. Measurements were plotted graphically as previously described (12). Patients and investigators were blinded to the result of the breath test.
All subjects were randomized by personnel not associated with the study to receive, in a double blind fashion, either neomycin (500 mg) (Teva pharmaceuticals, USA, Sellersville, Pa.) or matching placebo twice daily for 10 days. Seven days after completion of the antibiotic or placebo, subjects returned for a repeat questionnaire and LBT. A seven day follow up was chosen since in our experience the abnormal breath test in IBS can recur as early as two weeks after antibiotic normalization. As part of the follow up questionnaire, subjects were asked to subjectively rate the amount of improvement they experienced as a percent normalization of bowel function and repeated their perceived severity of the 9 bowel symptoms described earlier. Compliance was assessed by pill count. To comply with institutional review board requirements, follow-up LBT results could not be blinded so patients could seek appropriate medical therapy for their test result.
At the completion of enrollment, all initial and follow-up breath tests were coded and randomized by personnel not involved in the interpretation of the test. A blinded reviewer (M.P.) interpreted the results and was asked to categorize the breath tests based on whether the test met the criteria for normal LBT. […]

[2] = tested on: intestinal transit in dogs; experiment: Intestinal transit in dogs with duodenal and mid-gut fistulas after bolus delivery of gas to the distal gut (99mTc-DTPA recovery); assay type: in vivo; conditions: 180 ml bolus to the distal gut at time 0, n=three dogs
Procedure: In dogs equipped with duodenal (10 cm from pylorus) and mid-gut (160 cm from pylorus) fistulas, intestinal transit was compared across an isolated 150 cm test segment (between fistulas) while the proximal segment of the gut was perfused with pH 7.0 phosphate buffer at 2 mL/min for 90 minutes. Room air (n=three dogs) or methane (n=three dogs) was delivered into the distal gut as a 180-ml bolus at time 0. Sixty minutes after the start of the perfusion, 20 μCi of ^99mTc-DTPA (diethylenetriaminepentaacetic acid) was delivered as a bolus into the proximal segment of the gut. Intestinal transit was then measured by counting the radioactivity of 1 ml samples collected every 5 minutes from the diverted output of the mid-gut fistula. Intestinal transit was calculated by determining the area under the curve (AUC) of the cumulative percent recovery of the radioactive marker in the control (air administration) and experimental (methane administration) dogs. The square root values of the AUC (Sqrt AUC), where 0=no recovery by 30 minutes and 47.4=theoretical, instantaneous complete recovery by time 0, were compared for the control and experimental animals, using 2-way repeated measures ANOVA.

IBS = conditions: literature report (ref. 21); cited from earlier work

**Q.** Which results are given for neomycin?
**A.** patient-reported bowel normalization ([1]; 91 subjects who completed the question): 40.1±5.3%; subjects achieving normalization of LBT ([1]; abnormal baseline LBT, complete data, 8 out of 41): 20%; self-reported percent bowel normalization ([1]; abnormal baseline LBT, neomycin but not successful normalization of LBT): 36.7±6.1%; percent reduction in CS ([1]; abnormal baseline LBT, neomycin-treated group that did not achieve LBT normalization): 34.4±6.2%; percent reduction in CS ([1]; abnormal baseline LBT, neomycin-treated group with LBT normalization): 61.7±9.4%; self-reported percent bowel normalization ([1]; abnormal baseline LBT, normal follow up LBT after neomycin): 75.0±6.4%; subjects with true clinical response (≧50% improvement in CS) ([1]; all subjects receiving neomycin, 24 out of 55): 43%; odds ratio of true clinical response (≧50% improvement in CS) versus placebo ([1]; all subjects, CI=1.05-6.3): 4.3; reduction in composite score (CS) ([1]; intention-to-treat, all subjects (n=111), neomycin 500 mg twice daily for 10 days): 35.0±0.7%; reduction in composite score (CS) ([1]; subgroup with abnormal baseline LBT (n=93)): 35.4±0.8%; subjects with true clinical response (≧50% improvement in CS) ([1]; subgroup with abnormal breath tests, 21 out of 46): 46%; odds ratio of true clinical response (≧50% improvement in CS) versus placebo ([1]; subgroup with abnormal breath tests, CI=1.62-14.7): 4.8; patient-reported bowel normalization ([1]; subgroup with abnormal initial breath tests): 44.8±5.6%; reduction in composite score (CS) versus placebo ([1]; subjects with a normal baseline breath test): No difference; subjects with true clinical response (≧50% reported bowel normalization) ([1]; subjects with abnormal initial breath test): 55%; odds ratio of true clinical response (≧50% reported bowel normalization) versus placebo ([1]; subjects with abnormal initial breath test, CI=2.5-39.7): 9.6; subjects reporting more than 50% normalization of bowel function ([1]; subjects with normal follow up LBT after neomycin, 7 out of 8): 88%; odds ratio of true clinical response (≧50% reported bowel normalization) versus placebo ([1]; whole group who answered (n=91), CI=1.7-14.4): 4.8; subjects with true clinical response (≧50% reported bowel normalization) ([1]; whole group who answered the question (n=91)): 50%

**Q.** For `C` [methane], which “effect on rate of intestinal transit versus room air control” value [2] is on record?
**A.** substantially slowed the rate of intestinal transit

**Q.** What about the “effect on rate of intestinal transit versus room air control” value ([2]; listed as Methane) of the same molecule?
**A.** slowed intestinal transit

**Q.** With `Cc1ncc([N+](=O)[O-])n1CCO` [flagyl] as the molecule, how does the “reduction of clinical symptoms in IBS versus placebo” value (IBS) read?
**A.** superior to placebo
